The target in experiment [1] is T1, DRB3=HLA-DR(α1*0101,α3*0101) (Homo sapiens, UniProt P01903+P79483).
T1 construct: endogenous in cells; host or cells: STEILIN or 0206AD (both typed DRB3*0101)
Description: HLA-DR specific binding assay, DRB3 (DR52).

For experiment [2], the system named is lymphocytes obtained from HSV-1 infected H-2^d mice. Nature of the experiment: HSV-primed T-cell responses to gD peptides in HSV-1 infected mice. The format is cell-based. The conditions noted are these: for T-cell responses recalled in HSV infected mice: HSV infected H-2^d mice (FIG. 6); for immunodominance of epitopes in HSV-primed T-cell responses: HSV-1 infected H-2^d mice. On the procedure: Twelve days after the second immunization, spleen and inguinal lymph nodes (LN) were removed and placed into ice-cold serum free HL-1 medium supplemented with 15 mM HEPES, 5×10^−5 M β-mercaptoethanol, 2 mM glutamine, 50 U of penicillin and 50 μg of streptomycin (GIBCO-BRL, Grand Island, N.Y.) (complete medium, CM). The cells were cultured in 96-well plates at 5×10^5 cells/well in CM, with recall or control peptide at 30, 10, 3, 1, or 0.3 μg/ml concentration, as previously described in (BenMohamed et al., 2000 and 2002). The cell suspensions were incubated for 72 h at 37° C. in 5% CO2. One μCi (micro-curie) of (^3H)-thymidine (Dupont MEN, Boston, Mass.) was added to each well during the last 16 h of culture. The incorporated radioactivity was determined by harvesting cells onto glass fiber filters and counted on a Matrix 96 direct ionization-counter (Packard Instruments, Meriden, Conn.). Results were expressed as the mean cpm of cell-associated (^3H)-thymidine recovered from wells containing Ag minus the mean cpm of cell-associated (^3H)-thymidine recovered from wells without Ag (A cpm) (average of triplicate). The Stimulation Index (SI) was calculated as the mean cpm of cell-associated (^3H)-thymidine recovered from wells containing Ag divided by the mean cpm of cell-associated (^3H)-thymidine recovered from wells without Ag (average of triplicate). For all experiments the irrelevant control peptide gB141-165 and the T-cell mitogen Concanavalin A (ConA) (Sigma, St. Louis, Mo.) were used as negative and positive controls, respectively. Proliferation results were confirmed by repeating each experiment twice. A T-cell proliferative response was considered positive when A cpm>1000 and SI>2.
To define the fine specificity of broadly reactive T-cells associated with viral immunity and to explore immunodominance in the context of HSV infection, proliferation of lymphocytes obtained from twenty HSV-1 infected H-2^d mice were evaluated using the twelve gD peptides as Ag (FIG. 6). […] Despite a difference between individual mice, a unique array of T-cell responses was identified for each of the twenty infected mice analyzed.

Experiment [3] concerns the target T2, DP401=HLA-DP(α1*0101,α1*0401) (Homo sapiens, UniProt P04440+P20036).
T2 sequence (P20036 32-260 limits assumed): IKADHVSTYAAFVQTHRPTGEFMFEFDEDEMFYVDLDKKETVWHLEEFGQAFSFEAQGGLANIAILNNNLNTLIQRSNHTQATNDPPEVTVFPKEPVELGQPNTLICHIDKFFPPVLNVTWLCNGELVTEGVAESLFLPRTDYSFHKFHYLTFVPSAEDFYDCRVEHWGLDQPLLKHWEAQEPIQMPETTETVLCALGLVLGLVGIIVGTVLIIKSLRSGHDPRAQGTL
T2 sequence (P04440 30-258): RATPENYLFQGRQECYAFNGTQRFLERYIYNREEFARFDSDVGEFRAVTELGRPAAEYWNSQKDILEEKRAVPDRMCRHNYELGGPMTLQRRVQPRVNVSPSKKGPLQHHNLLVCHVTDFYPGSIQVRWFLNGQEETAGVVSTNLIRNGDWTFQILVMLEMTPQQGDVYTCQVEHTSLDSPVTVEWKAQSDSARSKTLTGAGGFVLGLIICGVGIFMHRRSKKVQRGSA
Nature of the experiment: biochemical. Format: binding.

In experiment [4] the test system is HLA-DR and HLA-DP molecules. Description: MHC class II binding assays, panel of twelve HLA class II molecules (number of alleles bound). The conditions noted are these: number of the twelve class II MHC alleles bound; title: Threshold 600 nM/5 alleles.
Experiment [5] deals with T3, DR13=HLA-DR(α1*0101,α1*1301) (Homo sapiens, UniProt P01903+P01911, A100E/A169T/K41T/L162R/M171V/P40S/Q125H/Q178H/Q39Y/Q99D/R42S/S66N/T262R/W38E/Y61H).
T3 construct: endogenous in cells; host or cells: 0206AD (EBV homozygous B cell line)
Description: HLA-DR specific binding assay, DR13.

Experiment [6] deals with T4, DR1=HLA-DR(α1*0101,α1*0101) (Homo sapiens, UniProt P01903+P01911, A100R/D57E/F55L/F60I/F76Y/I96L/L162R/M171V/P40L/Q125E/R42F/V115G/Y59C).
T4 construct: endogenous in cells; host or cells: EBV homozygous human B cell line
Nature of the experiment: biochemical. The conditions noted are these: […]. Format: binding.

Experiment [7] concerns the target T5, DRB4=HLA-DR(α1*0101,α4*0101) (Homo sapiens, UniProt P01903+P13762, G164S).
T5 construct: endogenous in cells
Nature of the experiment: HLA-DR specific binding assay, DRB4 (DR53).

Experiment [8] concerns the target T6, DR15=HLA-DR(α1*0101,α1*1501) (Homo sapiens, UniProt P01903+P01911).
T6 construct: endogenous in cells; host or cells: EBV homozygous human B cell line
Nature of the experiment: HLA-DR specific binding assay, DR15.

Experiment [9] deals with T7, DRB5=HLA-DR(α1*0101,α5*0101) (Homo sapiens, UniProt P01903+Q30154).
T7 construct: endogenous in cells; host or cells: EBV homozygous human B cell line
T7 sequence (Q30154 30-266, other chains not shown): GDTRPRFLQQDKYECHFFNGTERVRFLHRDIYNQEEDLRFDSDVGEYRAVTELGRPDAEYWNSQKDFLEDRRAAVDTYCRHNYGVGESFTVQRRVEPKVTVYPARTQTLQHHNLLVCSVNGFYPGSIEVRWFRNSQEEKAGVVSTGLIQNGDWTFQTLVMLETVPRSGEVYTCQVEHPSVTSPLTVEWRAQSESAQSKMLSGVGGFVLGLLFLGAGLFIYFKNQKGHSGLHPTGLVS
Nature of the experiment: biochemical. Format: binding.

Experiment [10] concerns the target T8, DR4=HLA-DR(α1*0101,α1*0401) (Homo sapiens, UniProt P01903+P01911, A100K/A169T/F76Y/I96L/K127E/L162R/M171V/N62H/P40V/Q125Y/R42H/S133A/S149N/S66Y/V115G/V209L/W38E).
T8 construct: endogenous in cells; host or cells: BOLETH (EBV homozygous B cell line)
Nature of the experiment: biochemical. The format is binding.

Experiment [11] concerns the target T9, DR3=HLA-DR(α1*0101,α1*0301) (Homo sapiens, UniProt P01903+P01911, A100K/A102G/A103R/A169T/F55Y/I96L/K41T/L162R/M171V/P40S/Q125H/Q178H/Q39Y/R42S/S66N/T106N/T262R/W38E/Y61H).
T9 construct: endogenous in cells; host or cells: STEILIN (EBV homozygous B cell line)
Nature of the experiment: HLA-DR specific binding assay, DR3.

[12] abbreviates: IC50, DRD3, Class II MHC allele DRD3 (so in the source).
Where [13] appears, read: read-out: IC50, DR13, Class II MHC allele DR13.
Setting [14] is: Class II MHC allele DR1, read-out: IC50, DR1.
The mark [15] stands for this setting: Table V, […], read-out: IC50 DRB5.
Where [16] appears, read: Class II MHC allele DR4, read-out: IC50, DR4.
Setting [17] is: Table V, […], read-out: IC50 DR4.
Where [18] appears, read: IC50, DR3, Class II MHC allele DR3.

Read-outs that look alike come from different tables or passages of the source.

T1 sequence (P79483 30-266, other chains not shown): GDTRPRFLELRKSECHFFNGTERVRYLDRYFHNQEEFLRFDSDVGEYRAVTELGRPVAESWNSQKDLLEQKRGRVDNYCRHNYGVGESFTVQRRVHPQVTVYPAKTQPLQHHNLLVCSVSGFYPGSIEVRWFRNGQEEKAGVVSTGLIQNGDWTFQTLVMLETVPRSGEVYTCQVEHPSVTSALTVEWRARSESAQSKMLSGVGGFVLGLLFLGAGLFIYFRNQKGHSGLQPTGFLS

Regarding `CC[C@H](C)[C@H](NC(=O)[C@H](CO)NC(=O)[C@@H]1CCCN1C(=O)[C@@H](NC(=O)[C@H](Cc1c[nH]cn1)NC(=O)[C@H](Cc1c[nH]c2ccccc12)NC(=O)[C@H](CC(N)=O)NC(=O)[C@@H]1CCCN1C(=O)[C@@H]1CCCN1C(=O)[C@@H](NC(=O)[C@H](CCC(N)=O)NC(=O)[C@@H]1CCCN1C(=O)[C@H](C)N)[C@@H](C)CC)[C@@H](C)CC)C(=O)N[C@@H](CCC(N)=O)C(=O)N[C@@H](CC(=O)O)C(=O)N[C@@H](C)C(=O)N[C@@H](C)C(=O)N[C@H](C(=O)N1CCC[C@H]1C(=O)N[C@@H](Cc1ccc(O)cc1)C(=O)N[C@@H](Cc1c[nH]cn1)C(=O)N1CCC[C@H]1C(=O)N1CCC[C@H]1C(=O)N[C@@H](C)C(=O)N[C@H](C(=O)N1CCC[C@H]1C(=O)N[C@@H](CC(N)=O)C(=O)N[C@@H](CC(N)=O)C(=O)N[C@@H](CCSC)C(=O)NCC(=O)N[C@@H](CC(C)C)C(=O)O)[C@@H](C)O)[C@@H](C)O` [HSV 35], the IC50 is 5000 nM in experiment [1] (setting [12]); 5000 nM in [1] (IC50 DRB3, Table V, […]); over 100000 nM in experiment [3] (Class II MHC allele DP401); over 100000 nM in experiment [3] (Table V, […]); over 100000 nM in experiment [5]; over 100000 nM in experiment [5] (setting [13]). In addition, the IC50 in experiment [6] (Table V, read-out: IC50 DR1) was found to be 3160 nM; in experiment [6] (setting [14]), 3160 nM; in experiment [7], 3260 nM; in experiment [8], 6790 nM; in experiment [9] (setting [15]), 4500 nM; in [10] (setting [16]) it was 600 nM. The IC50 in experiment [10] (setting [17]) was found to be 600 nM; in [11] (setting [18]), 19500 nM; in experiment [11] (IC50 DR3, Table V, […]), 19500 nM. Further, the “T-cell responses recalled in HSV infected mice” value in experiment [2] is reported as “either low or no response”. Moreover, in experiment [2], the “immunodominance of epitopes in HSV-primed T-cell responses” value is recorded as “immunodominant epitopes”. The Range in experiment [4] is listed as 1.
With `CC[C@H](C)[C@H](NC(=O)[C@H](CO)NC(=O)[C@H](CC(=O)O)NC(=O)[C@@H](NC(=O)[C@@H](NC(=O)[C@@H](NC(=O)CNC(=O)[C@H](CCC(N)=O)NC(=O)[C@H](CCC(N)=O)NC(=O)[C@H](Cc1ccc(O)cc1)NC(=O)[C@H](C)NC(=O)[C@H](CCC(N)=O)NC(=O)[C@@H]1CCCN1C(=O)[C@H](CO)NC(=O)[C@H](CC(C)C)NC(=O)[C@H](CS)NC(=O)[C@H](C)NC(=O)[C@@H](N)CO)C(C)C)[C@@H](C)O)C(C)C)C(=O)NCC(=O)N[C@@H](CCSC)C(=O)N[C@@H](CC(C)C)C(=O)N1CCC[C@H]1C(=O)N[C@@H](CCCNC(=N)N)C(=O)N[C@@H](Cc1ccccc1)C(=O)N[C@H](C(=O)N1CCC[C@H]1C(=O)N[C@@H](CCC(=O)O)C(=O)N[C@@H](CC(N)=O)C(=O)N[C@@H](CCC(N)=O)C(=O)N[C@@H](CCCNC(=N)N)C(=O)N[C@H](C(=O)N[C@H](C(=O)N[C@@H](C)C(=O)N[C@H](C(=O)N[C@@H](Cc1ccc(O)cc1)C(=O)O)C(C)C)C(C)C)[C@@H](C)O)[C@@H](C)CC` [HSV 37], the IC50 in [1] (setting [12]) is 41 nM; in [1] (IC50 DRB3, Table V, […]), 41 nM; in experiment [5], 2050 nM; in experiment [6] (Table V, read-out: IC50 DR1) it was 4 nM; in [6] (setting [14]), 4 nM; in experiment [7], 3740 nM. The IC50 in [8] was 13 nM; in [9] (setting [15]), 68 nM; in experiment [10] (IC50, DR4), 40 nM; in experiment [10] (IC50 DR4), 40 nM; in [11] (setting [18]) it was 307 nM; in experiment [11] (IC50 DR3, Table V, […]), 307 nM. Moreover, the “T-cell responses recalled in HSV infected mice” value in [2] is “either low or no response”. Also, in experiment [4], the Range is on record as 9.
For `CC[C@H](C)[C@H](NC(=O)[C@H](CCC(N)=O)NC(=O)[C@@H]1CCCN1C(=O)[C@H](C)NC(=O)[C@H](CCC(=O)O)NC(=O)[C@H](CO)NC(=O)[C@@H]1CCCN1C(=O)[C@H](C)NC(=O)[C@H](CC(N)=O)NC(=O)[C@H](CC(C)C)NC(=O)[C@H](CC(C)C)NC(=O)[C@@H](NC(=O)[C@H](CO)NC(=O)[C@H](CCCNC(=N)N)NC(=O)[C@H](CS)NC(=O)[C@H](C)NC(=O)[C@H](CCCNC(=N)N)NC(=O)[C@H](CCC(=O)O)NC(=O)[C@H](CC(C)C)NC(=O)[C@@H](NC(=O)[C@H](C)NC(=O)[C@H](Cc1ccc(O)cc1)NC(=O)[C@H](Cc1ccc(O)cc1)NC(=O)[C@@H](NC(=O)[C@@H](NC(=O)[C@@H](NC(=O)[C@@H]1CCCN1C(=O)[C@H](CC(C)C)NC(=O)[C@H](CO)NC(=O)[C@@H]1CCCN1C(=O)[C@@H]1CCCN1C(=O)[C@@H](N)CCC(N)=O)[C@@H](C)CC)[C@@H](C)O)C(C)C)C(C)C)C(C)C)C(=O)N[C@H](C(=O)N[C@@H](CCCNC(=N)N)C(=O)O)C(C)C` [HSV 36], the IC50 in experiment [1] (setting [12]) was 5000 nM; in [1] (IC50 DRB3, Table V, […]), 5000 nM; in experiment [3] (Class II MHC allele DP401) it was 615 nM; in experiment [3] (Table V, […]), 615 nM; in experiment [5], over 100000 nM; in experiment [5] (setting [13]) it was over 100000 nM. Moreover, the IC50 in [6] (Table V, read-out: IC50 DR1) came to 3 nM; in experiment [6] (setting [14]) it was 3 nM; in experiment [8] it was 18 nM; in [9] it was 66 nM; in experiment [10] (setting [16]), 93 nM; in experiment [10] (setting [17]), 93 nM. Further, the IC50 in experiment [11] (setting [18]) is 1250 nM; in experiment [11] (IC50 DR3, Table V, […]) it was 1250 nM. Moreover, the “immunodominance of epitopes in HSV-primed T-cell responses” value in [2] is “immunodominant epitopes”. The Range in experiment [4] is reported as 9.

As a reminder, the IC50 is the concentration that gives 50% inhibition.

Values taken from patent US20080299140A1, “Immunogenic Composition and Peptide Sequences for Prevention and Treatment of an Hsv Condition” (priority 2002, published 2008).
